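These data come from cells grown in 96-well plates and exposed to compound for 48 hours at five concentrations. GI50 = concentration required for 50% inhibition of growth.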 Calls of active or inactive are those of the source. Rule as the data show it: active = GI50 up to about 1.1 µM and inactive = higher.
Legend:
Assay in all cases: NCI-60 cell line screen, 48 h
HT-29 = test system: HT-29
M14 = test system: M14
NCI-H460 = test system: NCI-H460
KM12 = test system: KM12
CCRF-CEM = test system: CCRF-CEM
U-251 = test system: U-251
OVCAR-3 = test system: OVCAR-3
ACHN = test system: ACHN
NCI-H23 = test system: NCI-H23
UACC-62 = test system: UACC-62
EKVX = test system: EKVX
NCI-H522 = test system: NCI-H522
OVCAR-5 = test system: OVCAR-5
UACC-257 = test system: UACC-257
SK-MEL-28 = test system: SK-MEL-28
SNB-19 = test system: SNB-19
Malme-3M = test system: Malme-3M
HOP-92 = test system: HOP-92
RXF 393 = test system: RXF 393
HCT-116 = test system: HCT-116

Structure (SMILES)	GI50 (HT-29)	GI50 (M14)	GI50 (NCI-H460)	GI50 (KM12)	GI50 (CCRF-CEM)	GI50 (U-251)	GI50 (OVCAR-3)	GI50 (ACHN)	GI50 (NCI-H23)	GI50 (UACC-62)	GI50 (EKVX)	GI50 (NCI-H522)	GI50 (OVCAR-5)	GI50 (UACC-257)	GI50 (SK-MEL-28)	GI50 (SNB-19)	GI50 (Malme-3M)	GI50 (HOP-92)	GI50 (RXF 393)	GI50 (HCT-116)
Cc1ccc(Nc2nc(=O)c3c4ccccc4n(C(=O)OC(C)(C)C)c3s2)cc1	30.1 µM (inactive)	14.7 µM (inactive)	15.7 µM (inactive)	16.7 µM (inactive)	30.3 µM (inactive)	30.1 µM (inactive)	23.1 µM (inactive)	35.5 µM (inactive)	23.1 µM (inactive)	18.5 µM (inactive)	29.1 µM (inactive)	22.5 µM (inactive)	19.7 µM (inactive)	51.1 µM (inactive)	44.9 µM (inactive)	79.1 µM (inactive)	28.4 µM (inactive)	23.1 µM (inactive)		
NC(=O)NCc1c(C(N)=O)ncn1Cc1ccccc1	> 100 µM (inactive)	> 100 µM (inactive)	> 100 µM (inactive)		> 100 µM (inactive)	> 100 µM (inactive)	> 100 µM (inactive)	> 100 µM (inactive)	> 100 µM (inactive)	> 100 µM (inactive)	> 100 µM (inactive)			> 100 µM (inactive)	> 100 µM (inactive)	> 100 µM (inactive)		> 100 µM (inactive)	> 100 µM (inactive)	> 100 µM (inactive)
O=C(O)/C=N\N=c1[nH]c2ccccc2[nH]1	> 100 µM (inactive)	> 100 µM (inactive)	> 100 µM (inactive)	> 100 µM (inactive)	> 100 µM (inactive)	> 100 µM (inactive)	> 100 µM (inactive)	> 100 µM (inactive)	> 100 µM (inactive)	> 100 µM (inactive)	> 100 µM (inactive)	> 100 µM (inactive)	> 100 µM (inactive)	> 100 µM (inactive)	> 100 µM (inactive)	> 100 µM (inactive)	> 100 µM (inactive)	> 100 µM (inactive)		> 100 µM (inactive)
COc1c(O)c(OC)c2oc(-c3ccc(O)c(O)c3)c(OC)c(=O)c2c1O	30.7 µM (inactive)	17.6 µM (inactive)	35.9 µM (inactive)	48.3 µM (inactive)	23.9 µM (inactive)	16.9 µM (inactive)	2.85 µM (inactive)	31.4 µM (inactive)	32.7 µM (inactive)	7.52 µM (inactive)	29.6 µM (inactive)	10.5 µM (inactive)	38.8 µM (inactive)	24 µM (inactive)	18.7 µM (inactive)	53.8 µM (inactive)	6.24 µM (inactive)	30.5 µM (inactive)		31.2 µM (inactive)
CCOC(=O)c1csc(NC(=O)CN2CCCCC2)n1	> 100 µM (inactive)	> 100 µM (inactive)	> 100 µM (inactive)	> 100 µM (inactive)	> 100 µM (inactive)	> 100 µM (inactive)	> 100 µM (inactive)	> 100 µM (inactive)	> 100 µM (inactive)	> 100 µM (inactive)	> 100 µM (inactive)		> 100 µM (inactive)	> 100 µM (inactive)	> 100 µM (inactive)	> 100 µM (inactive)		> 100 µM (inactive)	> 100 µM (inactive)	
CN(/N=C/c1ccc(Cl)cc1)C1=NCCCCN1	66.2 µM (inactive)	24.6 µM (inactive)	> 100 µM (inactive)	50.5 µM (inactive)	38.1 µM (inactive)	> 100 µM (inactive)	> 100 µM (inactive)	> 100 µM (inactive)	> 100 µM (inactive)	67.1 µM (inactive)	> 100 µM (inactive)	39.4 µM (inactive)	> 100 µM (inactive)	> 100 µM (inactive)		> 100 µM (inactive)	62.8 µM (inactive)	47.3 µM (inactive)		48.1 µM (inactive)
CCOC(=O)Cc1c(Cc2[nH]c(C(=O)OCc3ccccc3)c(CC(=O)OCC)c2CC(=O)OCC)[nH]c(C(=O)OCc2ccccc2)c1CC(=O)OCC	> 100 µM (inactive)	> 100 µM (inactive)			> 100 µM (inactive)	> 100 µM (inactive)	> 100 µM (inactive)	> 100 µM (inactive)		> 100 µM (inactive)		> 100 µM (inactive)			> 100 µM (inactive)	> 100 µM (inactive)	> 100 µM (inactive)	> 100 µM (inactive)		> 100 µM (inactive)
C=C1CC(Cn2ccc(=O)[nH]c2=O)(c2ccc(-c3ccccc3)cc2)OC1=O (centres undefined)	0.938 µM (active)	1.67 µM (inactive)	11.2 µM (inactive)	3.61 µM (inactive)	0.305 µM (active)	12.1 µM (inactive)	1.98 µM (inactive)	1.78 µM (inactive)	1.98 µM (inactive)	0.764 µM (active)	12.2 µM (inactive)	0.836 µM (active)	10 µM (inactive)	1.65 µM (inactive)	2.45 µM (inactive)	16.9 µM (inactive)	1.46 µM (inactive)	1.2 µM (inactive)		0.377 µM (active)

Reference: ChEMBL document CHEMBL1201862, “PubChem BioAssay data set” (2004)
